Experimental data from US20110172230A1, “UREA COMPOUND OR SALT THEREOF” (priority 2006, published 2011).
pIC50: −log10 of the molar value. Counter-ions that a name gives are not always drawn.

Biological target: T1, FAAH (Homo sapiens, UniProt O00519)
T1 construct: host or cells: 5637 human bladder epithelial cancer-derived cells, not transfected
T1 sequence (O00519 1-579): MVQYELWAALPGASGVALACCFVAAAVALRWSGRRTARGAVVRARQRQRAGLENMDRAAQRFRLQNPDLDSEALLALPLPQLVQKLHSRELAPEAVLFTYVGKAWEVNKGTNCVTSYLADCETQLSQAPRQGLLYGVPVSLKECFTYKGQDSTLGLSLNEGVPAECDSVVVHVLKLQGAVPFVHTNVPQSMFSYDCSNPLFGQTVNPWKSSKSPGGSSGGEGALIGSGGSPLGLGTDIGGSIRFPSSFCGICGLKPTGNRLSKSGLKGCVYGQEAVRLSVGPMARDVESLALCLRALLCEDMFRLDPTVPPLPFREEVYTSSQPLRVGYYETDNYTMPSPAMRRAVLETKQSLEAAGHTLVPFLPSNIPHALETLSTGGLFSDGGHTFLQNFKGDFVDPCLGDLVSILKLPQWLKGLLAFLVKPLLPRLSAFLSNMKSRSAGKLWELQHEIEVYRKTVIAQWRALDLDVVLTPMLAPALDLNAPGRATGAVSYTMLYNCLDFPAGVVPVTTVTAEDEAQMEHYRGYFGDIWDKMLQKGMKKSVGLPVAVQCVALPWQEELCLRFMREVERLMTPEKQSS
Assay: Screening for an FAAH activity-inhibiting substance with human bladder epithelial cancer-derived cell line 5637 cells (IC50)
Assay type: cell-based
Conditions: FAAH activity in human bladder epithelial cancer-derived 5637 cells, 37° C., 30 minutes
Method: Screening for an FAAH Activity-Inhibiting Substance with a Human Bladder Epithelial Cancer-Derived Cell
(1) Screening for an FAAH Activity Inhibiting Substance
Human bladder epithelial cancer-derived cell line 5637 cells (HTB-9; ATCC) were seeded on a 48-well cell culture plate in an amount of 1×10^5 cell/well, using 10% fetal bovine serum (HyClone)-containing RPMI1640 medium (Invitrogen Corporation). After incubated at 37° C. for 12 hours or longer, the cells were washed with 400 μl/well of a buffer (Hank's Balanced Salt Solution, 20 mM Hepes-NaOH (pH 7.4)). A test substance dissolved in DMSO was added to a substrate solution (the above buffer containing 3 μCi/ml radiolabeled anandamide (Anandamide [ethanolamine 1-^3H]) and 10 μM anandamide) so as to have a concentration from 0.003 nM to 30 nM. As a control, DMSO alone was added. 100 μl/well of the substrate solution was added to the above cells, and incubated in a CO2 incubator at 37° C. for 30 minutes. Next, the cell culture plate was transferred onto ice, and the substrate solution was removed by suction; and 75 μl/well of a cytolytic solution (the above buffer containing 0.5% Triton X-100, and 10 μM of FAAH-inhibitory activity-having compound, 3′-carbamoylbiphenyl-3-yl ester (URB597; Cayman chemical; Kathuria et al., Nature Med., Vol. 9, pp. 76-81, 2003)) was added thereto, followed by stirring. The resulting cell lysate in every well was individually transferred into a 1.5 ml sample tube, to which was added 150 μl of 1:1 (ratio by volume) chloroform/methanol solution, followed by vortexing. This was centrifuged (15000 rpm, 2 minutes), whereby the decomposed product, ethanolamine (ethanolamine 1-^3H) was separated in the upper layer (water/methanol layer) and the unreacted radiolabeled anandamide was in the lower layer (chloroform layer). 25 μl of the upper layer was transferred into a 96-well organic solvent-resistant white microplate (PicoPlate-96; Perkin Elmer, Inc.), 150 μl of Microscint-20 (Perkin Elmer, Inc.) was added thereto, and this was measured with a microplate scintillation counter (TopCount™; Beckman Coulter, Inc.). As compared with the control, the substance that gave a decreased value was selected as an FAAH activity-inhibiting substance.
(2) Measurement of the IC50 Value of the FAAH Activity Inhibiting Substance
The compound dissolved in DMSO to have a concentration of 10 mM was dissolved in the substrate solution so as to have a varying concentration from 0.003 nM to 30 nM. According to the method mentioned above, the compound was analyzed for its influence on FAAH activity. As a negative control, DMSO was used. As a positive control, URB597 was added to the substrate solution to have a concentration of 10 μM. Based on the measured value of the positive control, 0%, and on the measured value of the negative control, 100%, the IC50 value of the test substance was obtained. Furthermore, Ex represents Example No. as denoted below.

Row | pIC50 | SMILES
1 | 8.25 | O=C(Nc1cccnc1)N1CCC(Oc2ccc(OCc3cccc(F)c3)cc2)CC1 [Example 1, 4-{4-[(3-fluorobenzyl)oxy]phenoxy}-N-(pyridin-3-yl)piperidine-1-carboxamide hydrochloride]
2 | 10.22 | O=C(N1CCC(Oc2ccc(OCc3cccc(F)c3)cc2)CC1)n1ccnc1 [Example 12, 4-{4-[(3-fluorobenzyl)oxy]phenoxy}-1-(1H-imidazol-1-ylcarbonyl)piperidine]
3 | 9.09 | O=C(c1ccc(OCc2cccc(F)c2)cc1)C1CCN(C(=O)Nc2cccnc2)CC1 [Example 59]
4 | 9.09 | O=C(c1ccc(OCCC2CCCCC2)cc1)C1CCN(C(=O)Nc2cccnc2)CC1 [Example 75]
5 | 9.66 | O=C(Cc1ccc(OCc2cccc(F)c2)cc1)N1CCN(C(=O)Nc2cccnc2)CC1 [Example 136]
6 | 9.48 | O=C(Nc1ccc(-n2cccn2)nc1)N1CCN(C(=O)c2cccc(OCCC3CCCCC3)c2)CC1 [Example 156]
7 | 9.54 | Nc1ccnn1C(=O)N1CCN(C(=O)c2cccc(OCCC3CCCCC3)c2)CC1 [Example 159]
8 | 9.68 | CC(=O)Nc1ccc(NC(=O)N2CCN(C(=O)c3cccc(OCCC4CCCCC4)c3)CC2)cn1 [Example 179]
9 | 9.80 | O=C(c1ccc(OCc2cccc(F)c2)cc1)N1CCN(C(=O)n2ccnc2)CC1 [Example 300]
10 | 9.24 | CCCCCCOc1ccc(C(=O)N2CCN(C(=O)Nc3cccnc3)CC2)cc1 [Example 317]
11 | 9.62 | O=C(Nc1cccnc1)N1CCN(C(=O)c2cccc(OCC3CCCCC3)c2)CC1 [Example 320]
12 | 9.27 | CN(Cc1cccc(F)c1)c1ccc(C(=O)N2CCN(C(=O)Nc3cccnc3)CC2)cc1 [Example 322]
13 | 10.10 | O=C(Nc1cccnc1)N1CCN(Cc2cccc(OCCC3CCCCC3)c2)CC1 [Example 388]
14 | 9.92 | O=C(Nc1cccnc1)N1CCN(C(=O)c2cccc(OCCc3ccccc3)c2)CC1 [Example 426]
15 | 9.07 | O=C(Nc1nccnc1Cl)N1CCC(Oc2cccc(OCCC3CCCCC3)c2)CC1 [Example 488]
